Values quoted from earlier work in patent US6468469B2, “Reuse determination for high level disinfectant” (Metrex Research Corporation, priority 2000, dated 2002).

Tested on: M. tuberculosis
Details: alone at a concentration of up to 7.5%

SMILES: OO [hydrogen peroxide]
- kill of M. tuberculosis: does not kill
